Source: ChEMBL document CHEMBL2086254, “Synthesis and identification of novel indolo[2,3-a]pyrimido[5,4-c]carbazoles as a new class of anti-cancer agents” (Eur J Med Chem, 2012)

Assays:
Format in all cases: functional
[1] = test system: MDA-MB-435; assay: Cytotoxicity against human MDA-MB-435 cells assessed cell growth at 10 uM after 48 hrs by SRB assay relative to control
[2] = test system: Malme-3M; assay: Cytotoxicity against human MALME-3M cells assessed as cell growth at 10 uM after 48 hrs by SRB assay relative to control; settings: read-out: Activity
[3] = test system: SF-295; assay: Cytotoxicity against human SF295 cells assessed as cell growth at 10 uM after 48 hrs by SRB assay relative to control; settings: SF-295, 48 h, read-out: Activity
[4] = test system: SK-OV-3; assay: Cytotoxicity against human SKOV3 cells assessed as cell growth at 10 uM after 48 hrs by SRB assay relative to control; settings: SK-OV-3, 48 h, read-out: Activity
[5] = test system: SF-268; assay: Cytotoxicity against human SF268 cells assessed as cell growth at 10 uM after 48 hrs by SRB assay relative to control; settings: SF-268, 48 h, read-out: Activity
[6] = test system: BT-549; assay: Cytotoxicity against human BT549 cells assessed as cell growth at 10 uM after 48 hrs by SRB assay relative to control; settings: BT-549, 48 h, read-out: Activity
[7] = test system: HCT-15; assay: Cytotoxicity against human HCT15 cells assessed as cell growth at 10 uM after 48 hrs by SRB assay relative to control; settings: HCT-15, 48 h, read-out: Activity
[8] = test system: A549; assay: Cytotoxicity against human A549 cells assessed as cell growth at 10 uM after 48 hrs by SRB assay relative to control; settings: A549, 48 h, read-out: Activity
[9] = test system: LOX IMVI; assay: Cytotoxicity against human LOXIMVI cells assessed as cell growth at 10 uM after 48 hrs by SRB assay relative to control; settings: read-out: Activity
[10] = test system: SNB-75; assay: Cytotoxicity against human SNB75 cells assessed as cell growth at 10 uM after 48 hrs by SRB assay relative to control; settings: SNB-75, 48 h, read-out: Activity
[11] = test system: EKVX; assay: Cytotoxicity against human EKVX cells assessed as cell growth at 10 uM after 48 hrs by SRB assay relative to control; settings: read-out: Activity
[12] = test system: UACC-257; assay: Cytotoxicity against human UACC257 cells assessed as cell growth at 10 uM after 48 hrs by SRB assay relative to control; settings: UACC-257, 48 h, read-out: Activity
[13] = test system: SK-MEL-5; assay: Cytotoxicity against human SK-MEL-5 cells assessed as cell growth at 10 uM after 48 hrs by SRB assay relative to control; settings: SK-MEL-5, 48 h, read-out: Activity
[14] = test system: NCI-H460; assay: Cytotoxicity against human NCI-H460 cells assessed as cell growth at 10 uM after 48 hrs by SRB assay relative to control; settings: NCI-H460, 48 h, read-out: Activity
[15] = test system: DU-145; assay: Cytotoxicity against human DU145 cells assessed as cell growth at 10 uM after 48 hrs by SRB assay relative to control; settings: DU-145, 48 h, read-out: Activity
[16] = test system: UO-31; assay: Cytotoxicity against human UO31 cells assessed as cell growth at 10 uM after 48 hrs by SRB assay relative to control; settings: UO-31, 48 h, read-out: Activity
[17] = test system: NCI-H522; assay: Cytotoxicity against human NCI-H522 cells assessed as cell growth at 10 uM after 48 hrs by SRB assay relative to control; settings: NCI-H522, 48 h, read-out: Activity
[18] = test system: IGROV-1; assay: Cytotoxicity against human IGROV1 cells assessed as cell growth at 10 uM after 48 hrs by SRB assay relative to control; settings: IGROV-1, 48 h, read-out: Activity
[19] = test system: NCI/ADR-RES; assay: Cytotoxicity against human NCI/ADR-RES cells assessed as cell growth at 10 uM after 48 hrs by SRB assay relative to control; settings: read-out: Activity
[20] = Cytotoxicity against human Hs 578T cells assessed as cell growth at 10 uM after 48 hrs by SRB assay relative to control; settings: read-out: Activity
[21] = test system: UACC-62; assay: Cytotoxicity against human UACC62 cells assessed as cell growth at 10 uM after 48 hrs by SRB assay relative to control; settings: UACC-62, 48 h, read-out: Activity
[22] = test system: NCI-H23; assay: Cytotoxicity against human NCI-H23 cells assessed as cell growth at 10 uM after 48 hrs by SRB assay relative to control; settings: NCI-H23, 48 h, read-out: Activity
[23] = test system: SF-539; assay: Cytotoxicity against human SF539 cells assessed as cell growth at 10 uM after 48 hrs by SRB assay relative to control; settings: SF-539, 48 h, read-out: Activity
[24] = test system: HCC 2998; assay: Cytotoxicity against human HCC2998 cells assessed as cell growth at 10 uM after 48 hrs by SRB assay relative to control; settings: HCC 2998, 48 h, read-out: Activity
[25] = test system: U-251; assay: Cytotoxicity against human U251 cells assessed as cell growth at 10 uM after 48 hrs by SRB assay relative to control; settings: U-251, 48 h, read-out: Activity
[26] = test system: MDA-MB-468; assay: Cytotoxicity against human MDA-MB-468 cells assessed as cell growth at 10 uM after 48 hrs by SRB assay relative to control; settings: MDA-MB-468, 48 h, read-out: Activity
[27] = test system: OVCAR-3; assay: Cytotoxicity against human OVCAR3 cells assessed as cell growth at 10 uM after 48 hrs by SRB assay relative to control; settings: OVCAR-3, 48 h, read-out: Activity
[28] = test system: K562; assay: Cytotoxicity against human K562 cells assessed as cell growth at 10 uM after 48 hrs by SRB assay relative to control; settings: K562, 48 h, read-out: Activity
[29] = test system: SK-MEL-28; assay: Cytotoxicity against human SK-MEL-28 cells assessed as cell growth at 10 uM after 48 hrs by SRB assay relative to control; settings: SK-MEL-28, 48 h, read-out: Activity
[30] = test system: A498; assay: Cytotoxicity against human A498 cells assessed as cell growth at 10 uM after 48 hrs by SRB assay relative to control; settings: A498, 48 h, read-out: Activity
[31] = test system: CAKI-1; assay: Cytotoxicity against human Caki1 cells assessed as cell growth at 10 uM after 48 hrs by SRB assay relative to control; settings: CAKI-1, 48 h, read-out: Activity
[32] = test system: M14; assay: Cytotoxicity against human M14 cells assessed as cell growth at 10 uM after 48 hrs by SRB assay relative to control; settings: M14, 48 h, read-out: Activity
[33] = test system: T47D; assay: Cytotoxicity against human T47D cells assessed as cell growth at 10 uM after 48 hrs by SRB assay relative to control; settings: read-out: Activity
[34] = test system: SNB-19; assay: Cytotoxicity against human SNB19 cells assessed as cell growth at 10 uM after 48 hrs by SRB assay relative to control; settings: SNB-19, 48 h, read-out: Activity
[35] = test system: OVCAR-8; assay: Cytotoxicity against human OVCAR8 cells assessed as cell growth at 10 uM after 48 hrs by SRB assay relative to control; settings: OVCAR-8, 48 h, read-out: Activity

Cn1c2ccccc2c2c3c(=O)[nH]c(N)nc3c3c4cccnc4n(C)c3c21
Activity [1]: 87.02% | growth at 10 µM [2]: 119% | growth at 10 µM [3]: 94.1% | growth at 10 µM [4]: 87.2% | growth at 10 µM [5]: 95.6% | growth at 10 µM [6]: 66% | growth at 10 µM [7]: 67.4% | growth at 10 µM [8]: 92.9% | growth at 10 µM [9]: 66% | growth at 10 µM [10]: 74.1% | growth at 10 µM [11]: 82.2% | growth at 10 µM [12]: 129% | growth at 10 µM [13]: 74.7% | growth at 10 µM [14]: 65.5% | growth at 10 µM [15]: 83.2% | growth at 10 µM [16]: 39.4% | growth at 10 µM [17]: 35% | growth at 10 µM [18]: 94.2% | growth at 10 µM [19]: 80.2% | growth at 10 µM [20]: 128% | growth at 10 µM [21]: 87% | growth at 10 µM [22]: 86.3% | growth at 10 µM [23]: 111% | growth at 10 µM [24]: 104% | growth at 10 µM [25]: 81.2% | growth at 10 µM [26]: 75.1% | growth at 10 µM [27]: 98.2% | growth at 10 µM [28]: 74% | growth at 10 µM [29]: 120% | growth at 10 µM [30]: 97.5% | growth at 10 µM [31]: 60.1% | growth at 10 µM [32]: 68.8% | growth at 10 µM [33]: 48.7% | growth at 10 µM [34]: 103% | growth at 10 µM [35]: 60.1%

Cn1cc(-c2[nH]c(=S)[nH]c(=O)c2-c2cn(C)c3ccccc23)c2ccccc21
Activity [1]: 77.23% | growth at 10 µM [2]: 99.5% | growth at 10 µM [3]: 94.2% | growth at 10 µM [4]: 100% | growth at 10 µM [5]: 106% | growth at 10 µM [6]: 102% | growth at 10 µM [7]: 95.2% | growth at 10 µM [8]: 103% | growth at 10 µM [9]: 92.2% | growth at 10 µM [10]: 85.7% | growth at 10 µM [11]: 75% | growth at 10 µM [12]: 94.2% | growth at 10 µM [13]: 96.2% | growth at 10 µM [14]: 93% | growth at 10 µM [15]: 110% | growth at 10 µM [16]: 75.8% | growth at 10 µM [17]: 96.7% | growth at 10 µM [18]: 75.7% | growth at 10 µM [19]: 101% | growth at 10 µM [20]: 103% | growth at 10 µM [21]: 93.4% | growth at 10 µM [22]: 94.2% | growth at 10 µM [23]: 99.1% | growth at 10 µM [24]: 113% | growth at 10 µM [25]: 89% | growth at 10 µM [26]: 107% | growth at 10 µM [27]: 98.7% | growth at 10 µM [28]: 87% | growth at 10 µM [29]: 104% | growth at 10 µM [30]: 102% | growth at 10 µM [31]: 82.4% | growth at 10 µM [32]: 106% | growth at 10 µM [33]: 98.3% | growth at 10 µM [34]: 105% | growth at 10 µM [35]: 102%

Cn1cc(-c2c(-c3cn(C)c4ncccc34)nc(N)[nH]c2=O)c2ccccc21
Activity [1]: 98.77% | growth at 10 µM [2]: 107% | growth at 10 µM [3]: 98.2% | growth at 10 µM [4]: 98.3% | growth at 10 µM [5]: 101% | growth at 10 µM [6]: 95.8% | growth at 10 µM [7]: 103% | growth at 10 µM [8]: 102% | growth at 10 µM [9]: 99.9% | growth at 10 µM [10]: 87.5% | growth at 10 µM [11]: 96.3% | growth at 10 µM [12]: 103% | growth at 10 µM [13]: 96.5% | growth at 10 µM [14]: 98.4% | growth at 10 µM [15]: 107% | growth at 10 µM [16]: 79% | growth at 10 µM [17]: 88% | growth at 10 µM [18]: 87.1% | growth at 10 µM [19]: 101% | growth at 10 µM [20]: 101% | growth at 10 µM [21]: 97% | growth at 10 µM [22]: 92.6% | growth at 10 µM [23]: 104% | growth at 10 µM [24]: 109% | growth at 10 µM [25]: 77.5% | growth at 10 µM [26]: 116% | growth at 10 µM [27]: 99.7% | growth at 10 µM [28]: 95% | growth at 10 µM [29]: 11% | growth at 10 µM [30]: 85.7% | growth at 10 µM [31]: 90% | growth at 10 µM [32]: 103% | growth at 10 µM [33]: 83% | growth at 10 µM [34]: 111% | growth at 10 µM [35]: 95.8%
